Reference: publication PMC9004346, “Development of small cyclic peptides targeting the CK2α/β interface” (Chemical Communications (Cambridge, England), 2022)
Where two headings read alike, the source gives them in different places. *1 amine or outer side, *2 acyl side, *3 side chain or, on linkers, in order; H or OH if unused. Where a SMILES comes first, the peptide text is derived from it. Bridges are numbered along the chain shown (N, C = ends). [ ]: non-standard residue; d: D form. Trp(2-yl) = O=C([C@H](Cc1c([*:3])[nH]c2ccccc12)N[*:1])[*:2]; hCys = N[C@@H](CCS)C(=O)O; Ahx = NCCCCCC(=O)O

Legend:
Serum stability test = format: in vitro ADME; conditions: 20% human serum in PBS, 37 °C, monitored over 24 h
Description: 1.6.3 Serum stability test
500 μL of PBS buffer supplemented with 20% (v/v) of human serum was allocated into an Eppendorf tube and temperature kept at 37 °C for 15 minutes before commencing the experiment. 5 µL of the peptide from 10 mM stock solution in DMSO was added. Caffeine was added as an internal standard (10 μL of a 15 mg/mL solution in MQ water). At specific intervals, 50 µL of the reaction mixture was taken and quenched with 100 µL of a 1:1 mixture of 96% Ethanol:DMSO. The suspension was spun at 13400 g for 10 minutes. 100 μL of the supernatant was analysed using C-18 HPLC with an eluting gradient 5-95% MeCN (0.05% TFA) in water (0.05% TFA) over 15 minutes (90 μL injection volume).
Percentage of intact starting peptide was monitored over 24 h (calculated as the ratio of the area of […]
the peak corresponding to the intact peptide to the area of the peak of caffeine). The experiment was […]
1 M. M. Wiedmann, Y. S. Tan, Y. Wu, S. Aibara, W. Xu, H. F. Sore, C. S. Verma, L. Itzhaki, M.
Stewart, J. D. Brenton and D. R. Spring, Angew. Chemie Int. Ed., 2017, 56, 524–529.
3 G. T. Potter, G. C. Jayson, G. J. Miller and J. M. Gardiner, J. Org. Chem., 2016, 81, 3443–3446.
4 J. Iegre, P. Brear, D. J. Baker, Y. S. Tan, E. L. Atkinson, H. F. Sore, D. H. O’ Donovan, C. S. Verma,
7 C. Puig Duran, F. Albericio Palomera, M. Gongora Benitez, M. Paradis Bas, L. Miret Casals, I. […]

HeLa cells = test: MTT cell viability assay in HeLa cells; format: cell-based; conditions: HeLa cells, MTT, 48 h
Description: (§1) HeLa cells were maintained in 5% CO2 in DMEM supplemented with 10% FBS, 2 mM L-glutamine, 100 U/mL penicillin and […] streptomycin, in an atmosphere containing 5% CO2.
(§2) Cells were regularly passed and used for experiments within one month after thawing (10-15 […]
(§3) 1.6.2 Cell viability assay
(§4) Cell viability was assayed by 3-(4,5-dimethylthiazol-2-yl)-2,5-diphenyltetrazolium bromide (MTT) colorimetric assay. HeLa cells were plated on 96-well plates (20,000 cells per well in 100 μL). After 24 h, cells were treated with different concentrations of test compounds or vehicle alone (DMSO). One hour before the end of the incubations, 10 μL of MTT solution (5 mg/mL in PBS) were added to each well. Formazan crystals (proportional to the number of viable cells) were then dissolved by the addition of 20 μL/well of a pH 4.7 solution containing 20% (w:v) SDS, 50% (v:v) N,N-dimethylformamide, 2% (v:v) acetic acid, and 25 mM HCl, and quantified by recording the absorbance at 570 nm using an Infinite M200 PRO plate reader (TECAN, Life Sciences). […]

[1] = MTT cell viability assay in HeLa cells; format: cell-based; conditions: human
Description: as §1, §2, §3, §4

Serum stability (in words) (Serum stability test)	SMILES	Effect on cell viability (in words) (HeLa cells)	viability at 48 h, 50 µM [1] [%]	viability at 48 h, 100 µM [1] [%]	viability at 48 h, 50 µM ([1]; HeLa cells, 48 h, 50 μM compound, ±standard deviation, read-out: Cell viability (%) 50 μM compound) [%]	viability at 48 h, 100 µM ([1]; HeLa cells, 48 h, 100 μM compound, ±standard deviation, read-out: Cell viability (%) 100 μM compound) [%]
fully had degraded after 1 h	CC(=O)N[C@@H](CCS)C(=O)N[C@@H](CCCNC(=N)N)C(=O)N[C@@H](CC(C)C)C(=O)N[C@@H](Cc1ccc(O)cc1)C(=O)NCC(=O)N[C@@H](Cc1ccccc1)C(=O)N[C@@H](CCCCN)C(=O)N[C@@H](Cc1c[nH]c2ccccc12)C(N)=O [Peptide P8] (Ac-[hCys]RLYGFKW-NH2)					
	CC(C)C[C@@H]1NC(=O)[C@H](CCCNC(=N)N)NC(=O)[C@@H](NC(=O)CCCCCNC(=O)CCCCCNC(=O)[C@H](CCCNC(=N)N)NC(=O)[C@H](CCCNC(=N)N)NC(=O)[C@@H](N)CCCNC(=N)N)CCSc2[nH]c3ccccc3c2C[C@@H](C(N)=O)NC(=O)[C@H](CCCCN)NC(=O)[C@H](Cc2ccccc2)NC(=O)CNC(=O)[C@H](Cc2ccc(O)cc2)NC1=O [Peptide R3-P8C9] (H-RRR[Ahx][Ahx][hCys]RLYGFK[Trp(2-yl)]-NH2; thioether 6-13)	large reduction in cell viability	66 ± 5	54 ± 4		
	CC(C)C[C@@H]1NC(=O)[C@H](CCCNC(=N)N)NC(=O)[C@@H](NC(=O)CCCCCNC(=O)CCCCCNC(=O)[C@H](CCC(N)=O)NC(=O)[C@@H]2CCCN2C(=O)[C@@H]2CCCN2C(=O)[C@H](CCCNC(=N)N)NC(=O)[C@H](CCCNC(=N)N)NC(=O)[C@H](CCCNC(=N)N)NC(=O)[C@H](CCC(N)=O)NC(=O)[C@H](CCCNC(=N)N)NC(=O)[C@H](CCCNC(=N)N)NC(=O)[C@H](CCCCN)NC(=O)[C@H](CCCCN)NC(=O)[C@H](CCCNC(=N)N)NC(=O)CN)CCSc2[nH]c3ccccc3c2C[C@@H](C(N)=O)NC(=O)[C@H](CCCCN)NC(=O)[C@H](Cc2ccccc2)NC(=O)CNC(=O)[C@H](Cc2ccc(O)cc2)NC1=O [TAT-P8C9] (H-GRKKRRQRRRPPQ[Ahx][Ahx][hCys]RLYGFK[Trp(2-yl)]-NH2; thioether 16-23)	large reduction in cell viability			66 ± 4	26 ± 7
